Assay results taken from patent US20110183995A1, “ELTOPRAZINE FOR SUPPRESSION OF L-DOPA INDUCED DYSKINESIAS” (Neurosearch A/S, priority 2008, published 2011).

Legend:
6-OHDA-lesioned rats = test: Antidyskinetic effect of Eltoprazine in the rat 6-OHDA model (L-DOPA-induced dyskinesia, total AIM score); type: in vivo; conditions: for reduction of dyskinesia (total score: limb, axial and orolingual): compared to the control L-DOPA-only treated group, two-hour test
Experimental: In this experiment we determined the antidyskinetic properties of Eltoprazine.
6-OHDA-lesioned rats were made dyskinetic and allocated into three well-balanced groups (n=6 per group), which were challenge on the day of the experiments with L-DOPA-only, L-DOPA plus Eltoprazine 0.1 mg/kg or L-DOPA plus Eltoprazine 0.3 mg/kg, respectively.
Limb, axial and orolingual dyskinesias were scored over the tow-hour test and the sum is reported here as the total score, and the results are presented in FIG. 4.

PD patients = conditions: large phase III clinical trial, terminated; cited from earlier work

With c1cc2c(c(N3CCNCC3)c1)OCCO2 [Eltoprazine, 1-(2,3-Dihydro-benzo[1,4]dioxin-5-yl)piperazine] the “reduction of dyskinesia (total score: limb, axial and orolingual)” value (6-OHDA-lesioned rats; Eltoprazine 0.1 mg/kg plus L-DOPA) was “approximately 50%”, the “reduction of dyskinesia (total score: limb, axial and orolingual)” value (6-OHDA-lesioned rats; Eltoprazine 0.3 mg/kg plus L-DOPA) was “near-complete abolishment” and the “suppression of L-DOPA-induced dyskinesia” value (6-OHDA-lesioned rats; rats, higher dose alone) was “near-complete suppression”.

For Fc1ccc(-c2cncc(CNC[C@H]3CCc4ccccc4O3)c2)cc1 [Sarizotan], the clinical antidyskinetic efficacy (PD patients) is given as “lack of efficacy”.
